Reference: patent US5801176A, “Substituted benzothienylpiperazines and their use” (Hoechst Marion Roussel, Inc., priority 1997, dated 1998)
Counter-ions that a name gives are not always drawn.

System: apomorphine climbing
Assay: climbing mice assay (apomorphine-induced climbing, antipsychotic activity)
Format: in vivo
Settings: Mus musculus, 0.5 h, ip @ 30 (min before apomorphine 1.5 mg/kg sc); for change in vivo at 20 mg/kg: read-out: CLIMBING MOUSE % (percent response, climbing score vs. control set to 100%); for ED50: parentheses = 95% confidence limits
Procedure: The compounds of the present invention are useful for treating psychoses by virtue of their ability to elicit an antipsychotic response in mammals. Antipsychotic activity is determined in the climbing mice assay by a method similar to those described by P. Protais, et al., Psychopharmacol.,50:1 (1976) and B. Costall, Eur. J. Pharmacol., 50:39 (1978).
Subject […] male mice (23-27 grams) are group-housed under standard laboratory conditions. The mice are individually placed in wire mesh stick cages (4"×10") and are allowed one hour for adaption and exploration of the new environment. Then apomorphine is injected subcutaneously at 1.5 mg/kg, a dose causing climbing in all subjects for 30 minutes. Compounds to be tested for antipsychotic activity are injected intraperitioneally or given by oral doses at various time intervals., e.g. 30 minutes, 60 minutes, etc., prior to the apomorphine challenge at a screening dose of 10-60 mg/kg.
For evaluation of climbing, 3 readings are taken at 10, 20 and 30 minutes after apomorphine administration according to the following scale:
4 paws on bottom (no climbing)
2 paws on the wall (rearing)
4 paws on the wall (full climb)
Mice consistently climbing before the injection of apomorphine are discarded.
With full-developed apomorphine climbing, the animals are hanging on to the cage walls, rather motionless, over long periods of time. By contrast, climbs due to mere motor stimulation usually only last a few seconds.
The climbing scores are individually totaled (maximal score: 6 per mouse over 3 readings) and the total score of the control group (vehicle intraperitoneally-apomorphine subcutaneously) is set to 100%. The percent response at a dose of 20 mg/kg. or the ED50 values with 95% confidence limits, calculated by a linear regression analysis, of some of the compounds of the present invention as well as a standard antipsychotic agent are presented in Table 1.

CC(=O)N(CCCCN1CCN(c2csc3cc(F)ccc23)CC1)C(=O)C(C)C [N-Acetyl-N-[4-[4-(6-fluorobenzo[b]thien-3-yl)-1-piperazinyl]butyl]-2-methyl-propanamide]
change in vivo at 20 mg/kg: -75%

NCCCCN1CCN(c2csc3cc(F)ccc23)CC1 [4-(6-Fluorobenzo[b]thien-3-yl)-1-piperazinebutanamine (Z)-2-butenedioate (1:2)]
change in vivo at 20 mg/kg: -34%

O=C1c2ccccc2C(=O)N1CCCCN1CCN(c2csc3cc(F)ccc23)CC1 [2-[4-[4-(6-Fluorobenzo[b]thien-3-yl)-1-piperazinyl]butyl]-1H-isoindole-1,3(2H)-dione]
change in vivo at 20 mg/kg: -100%

CC(C)C(=O)NCCCCN1CCN(c2csc3cc(F)ccc23)CC1 [N-[4-[4-(6-fluorobenzo[b]thien-3-yl)-1-piperazinyl]butyl]-2-methyl-propanamide]
ED50: 1.3 mg/kg

CC(=O)NCCCCN1CCN(c2csc3cc(F)ccc23)CC1 [N-[4-[4-(6-Fluorobenzo[b]thien-3-yl)-1-piperazinyl]butyl-acetamide]
ED50: 1.35 mg/kg

O=C1c2ccccc2C(=O)N1CCN1CCN(c2csc3cc(F)ccc23)CC1 [N-[2-[4-(6-Fluorobenzo[b]thien-3-yl)-1-piperazinyl]-ethyl]-phthalimide]
change in vivo at 20 mg/kg: -25%

Fc1ccc2c(N3CCN(CCCCN4Cc5ccccc5C4)CC3)csc2c1
change in vivo at 20 mg/kg: -33%

O=C(NCCCCN1CCN(c2csc3cc(F)ccc23)CC1)C12CC3CC(CC(C3)C1)C2 [N-[4-[4-(6-Fluorobenzo[b]thien-3-yl)-1-piperazinyl]butyl]-adamantane-1-carboxamide maleate]
change in vivo at 20 mg/kg: -79%

O=C(NCCCCN1CCN(c2csc3cc(F)ccc23)CC1)c1cccs1 [N-[4-[4-(6-Fluorobenzo[b]thien-3-yl)-1-piperazinyl]butyl]-2-thiophenecarboxamide (Z)-2-butenedioate (1:1)]
change in vivo at 20 mg/kg: -100%

O=C1c2ccccc2C(O)N1CCN1CCN(c2csc3cc(F)ccc23)CC1 (stereo not shown) [2-[2-[4-(6-Fluorobenzo[b]thien-3-yl)-1-piperazinyl]-ethyl-2,3-dihydro-3-hydroxy-1H-isoindol-1-one]
change in vivo at 20 mg/kg: -43%
